Experiment: in vitro
Details: human, hela cells, % viability

Compared with `CC1CCc2c(C(=O)N(C)CC(=O)NC(C)(C)C)csc2C1` (stereo not shown) [CBK305002], `Cc1cc(C)n(CC(C)CNC(=O)Cc2csc(N3CCCC3=O)n2)n1` (stereo not shown) [CBK305624] is lower in viability at 28.5 h, 10 µM: 97.5% for the first, 91.2% for the second.

Compared with `Cn1c(Cc2cccc3ccccc23)nnc1SCC(=O)Nc1ccccc1F` [CBK265856], `CC(Oc1cccc2ccccc12)C(=S)N(C)c1ccccc1` (stereo not shown) [CBK016158] is higher in viability at 28.5 h, 10 µM: 85% for the first, 88.2% for the second.

Going from `Cc1cc(C)cc(NC(=O)C2C3C=CC(O3)C2C(=O)O)c1` (stereo not shown) [CBK262642] to `O=C(O)c1cccc(C(=O)Nc2cccc(NC(=O)C3CCCO3)c2)c1` (stereo not shown) [CBK268566], the viability at 28.5 h, 10 µM rises from 95.3% to 108%.

Compared with `c1cc(COc2ccc(N3CCNCC3)nn2)co1` [CBK022562], `CN1CCN(C(=O)c2ccc(-c3ccoc3)nc2)CC1` [CBK156280] is higher in viability at 28.5 h, 10 µM: 95.7% for the first, 100% for the second.

Going from `CN1CCC(N(C)Cc2cc(Cl)ccc2[N+](=O)[O-])CC1` [CBK261576] to `CC(C)OC(=O)N1CCC(N(C)Cc2ccc(-c3ccc(S(C)(=O)=O)cc3)nc2)CC1` [CBK165261T], the viability at 28.5 h, 10 µM rises from 91.1% to 121%.

Going from `CCC(CO)NC(=O)C1(Cc2ccc(-c3cc(C)cc(C)c3)cc2)CCOCC1` (stereo not shown) [CBK286522] to `CCNC(=O)C1(Cc2ccccc2-c2ccccc2C)CCN(C(=O)C2CCCCC2)CC1` [CBK285717], the viability at 28.5 h, 10 µM rises from 90.8% to 106%.

Going from `CCC(=O)N1CCCC(c2nnc(-c3cccs3)o2)C1` (stereo not shown) [CBK283060] to `Cc1nc2ccc(C(=O)NCC3CCCN(C(C)C)C3)cc2[nH]1` (stereo not shown) [CBK282475], the viability at 28.5 h, 10 µM falls from 92% to 90%.

Compared with `CCN(Cc1ncc[nH]1)[C@H]1CCO[C@@H](c2ccccc2-c2ccc(OC)cc2)C1` [CBK285842], `CCN(C(=O)c1ccc(C)nc1)[C@H]1CCO[C@@H](c2cccc(-c3cc(F)cc(F)c3)c2)C1` [CBK285856] is lower in viability at 28.5 h, 10 µM: 104% for the first, 91% for the second.

First: O=C(CN(c1cccc(Cl)c1)S(=O)(=O)c1ccccc1)NN=C1CCCCC1 [CBK262470]
Second: CS(=O)(=O)N(CC(=O)Nc1ccc(S(=O)(=O)N2CCCC2)cc1)c1ccc2c(c1)OCO2 [CBK268995]
The viability at 28.5 h, 10 µM of the first is higher: 114% for the first, 97.7% for the second.

Compared with `O=C(Cc1ccc2c(c1)CCCO2)NCc1ccccc1-n1ccnc1` [CBK281463], `CC(=O)Nc1cccc(C(=O)N2CCOC(CCc3ccccc3)C2)c1` (stereo not shown) [CBK304629] is higher in viability at 28.5 h, 10 µM: 86.6% for the first, 88.7% for the second.

First: Cn1c(CN2CCN(c3ccc(C#N)cn3)CC2)nnc1C1CC1 [CBK304781]
Second: Cc1c(Cc2ccccc2)c(N2CCN(C/C=C/c3ccccc3)CC2)n2c(nc3ccccc32)c1C#N [CBK263112]
The viability at 28.5 h, 10 µM of the first is lower: 92.5% for the first, 101% for the second.

Going from `Cc1nn(-c2ccc(C(=O)O)cc2)c2c1C(=O)CC(C)(C)C2` [CBK286734] to `Cc1nn(Cc2ccc(Cl)cc2)c(C)c1C(N)C(=O)O` (stereo not shown) [CBK286661], the viability at 28.5 h, 10 µM rises from 86.4% to 89.7%.

Compared with `CC(C)(C)C(=O)N[C@H]1C[C@@H](Cc2cc(CN3CCOCC3)on2)C1(C)C` [CBK289247], `O=C(CN1CCOCC1)c1ccc(O)o1` [CBK019286] is lower in viability at 28.5 h, 10 µM: 96.2% for the first, 95.4% for the second.

First: Oc1ccc(Nc2ncnc3scc(-c4ccccc4)c23)cc1 [CBK269146C]
Second: O=C(Nc1ccccc1Oc1ccc(F)cc1)c1ccc(Cn2cncn2)cc1 [CBK285587]
The viability at 28.5 h, 10 µM of the first is lower: 108% for the first, 118% for the second.

Going from `Cc1ccc(C(=O)Nc2noc3ccccc23)cc1` [CBK288124] to `COc1ccc(C(=O)Nc2nc3ccc(OC)cc3s2)cc1` [CBK287306], the viability at 28.5 h, 10 µM rises from 88.9% to 96.5%.

Compared with `COc1cc(C(=O)O)cc2c1NC(c1ccc(C(=O)O)cc1)C1CC=CC21` (stereo not shown) [CBK287018], `O=C(O)C1Nc2ccc(Oc3ccccc3)cc2C2C=CCC12` (stereo not shown) [CBK286542] is lower in viability at 28.5 h, 10 µM: 90.3% for the first, 80.8% for the second.

Compared with `CC(=O)NCCc1nc2cc(NC(=O)c3ccc([N+](=O)[O-])cc3)ccc2n1C` [CBK268368], `COc1ccc(CCNC(=O)Nc2ccccc2[N+](=O)[O-])cc1` [CBK266497] is lower in viability at 28.5 h, 10 µM: 117% for the first, 96.8% for the second.

Going from `COc1cccc(C(=O)C2=C(O)C(=O)N(CCCn3ccnc3)C2c2cccc(F)c2)c1` (stereo not shown) [CBK266419] to `C=CCOc1ccc(-c2nn(-c3ccccc3)cc2/C=C2/SC(=S)N(CC(=O)O)C2=O)c(C)c1` [CBK265062], the viability at 28.5 h, 10 µM falls from 107% to 95.8%.

Going from `Cc1cccc(CNc2nccnc2-c2ccncc2)c1` [CBK037453] to `CN(C)CCNc1nc(-c2ccncc2)cnc1N` [CBK063580], the viability at 28.5 h, 10 µM rises from 99.3% to 102%.

Going from `O=C(CN1CCCC2(CCN(C(=O)c3ccoc3)C2)C1)Nc1ncccn1` (stereo not shown) [CBK137140] to `Cc1ccc(S(=O)(=O)N2CCN(C(=O)c3ccco3)CC2)cc1` [CBK068166], the viability at 28.5 h, 10 µM falls from 102% to 92.8%.

Going from `O=C(c1ccc(S(=O)(=O)N2CCCCC2)cc1)N1CCN(CCN2C(=O)c3cccc4cccc(c34)C2=O)CC1` [CBK262536] to `O=C(NC(c1ccc(F)cc1)c1ccc2ccccc2n1)C1CCN(CCCN2CCOCC2)CC1` (stereo not shown) [CBK148118], the viability at 28.5 h, 10 µM rises from 79.3% to 91.8%.

Going from `CC1CCCCN1C(=O)CCc1nc2sc3c(c2c(=O)[nH]1)CCCC3` (stereo not shown) [CBK306086] to `O=C(Nc1ccc2c(c1)nc1n2CCOC1)C1CCCCC1` [CBK307570], the viability at 28.5 h, 10 µM falls from 112% to 90%.

Going from `CC(=O)N1CCc2nc(C)nc(N(C)Cc3cnn(C(C)C)c3)c2CC1` [CBK306968] to `COC(=O)c1ccc2c(=O)n(CC(C)C)c(SC)nc2c1` [CBK306042], the viability at 28.5 h, 10 µM falls from 83.1% to 81.3%.

First: Fc1ccc(OCCCN2CCC3(CC2)OCCc2c3[nH]c3ccccc23)cc1 [CBK107736]
Second: O=C(O)C(c1c[nH]c2ccc(OCc3ccccc3)cc12)N1CCCC1 (stereo not shown) [CBK286686]
The viability at 28.5 h, 10 µM of the first is lower: 77% for the first, 97.6% for the second.

Going from `O=C(NC[C@H]1O[C@@H](CC(=O)N2CCCC2)[C@H](O)[C@@H]1O)c1ccc(F)c(Cl)c1` [CBK288913] to `O=C(NCCO)c1ccc(-c2cnc3[nH]c(=O)n(C4CCOCC4)c3n2)cc1` [CBK065041], the viability at 28.5 h, 10 µM rises from 90.9% to 108%.

First: CSc1nc(O)c(C(c2ccc(C)cc2)c2c(O)nc(SC)nc2O)c(O)n1 [CBK265313]
Second: COc1ccc(Sc2nc3cc(Cl)c(Cl)cc3nc2NC(C)C)cc1OC [CBK093792]
The viability at 28.5 h, 10 µM of the first is lower: 90.3% for the first, 103% for the second.

`OCCC1CCCCN1c1cncc(-c2cccc(Cl)c2)n1` (stereo not shown) [CBK037906] and `CC(C)Nc1cncc(Sc2cccc(N)c2)n1` [CBK091434] are the same in viability at 28.5 h, 10 µM: 108% for the first, 108% for the second.

First: Cc1ccc(S(=O)(=O)N(CCO)CC2CC2)c(Cl)c1 [CBK304885]
Second: CC(CCO)CNS(=O)(=O)c1ccc(N2CCCC2=O)cc1 (stereo not shown) [CBK306358]
The viability at 28.5 h, 10 µM of the first is lower: 75% for the first, 90.5% for the second.

Going from `C/C(=N/Nc1ccc([N+](=O)[O-])cc1[N+](=O)[O-])C1CC1` [CBK260921] to `Cc1ccc(S(=O)(=O)Nc2c(C(=O)N3CCN(C)CC3)sc3ncccc23)cc1[N+](=O)[O-]` [CBK050025], the viability at 28.5 h, 10 µM falls from 104% to 91.2%.

First: CC(=O)N[C@@H](CC(C)C)C(=O)Nc1cc(C)nc2ccccc12 [CBK116265]
Second: O=C(O)c1ccccc1NC(=S)NC(=O)c1ccccc1[N+](=O)[O-] [CBK264963]
The viability at 28.5 h, 10 µM of the first is lower: 94.3% for the first, 96.2% for the second.

Going from `Cc1ncncc1C(=O)NCC1(c2ccccc2F)CCCC1` [CBK281411] to `CCn1c(N2CCCC(C(=O)NC3CC3)C2)nc2ccccc21` (stereo not shown) [CBK282419], the viability at 28.5 h, 10 µM rises from 105% to 106%.

Going from `CCCn1c(SCC(=O)N2c3ccc(F)cc3CCC2C)nnc1-c1cccnc1` (stereo not shown) [CBK059187] to `Cn1nnnc1SCC(=O)Nc1cc(F)ccc1F` [CBK057872], the viability at 28.5 h, 10 µM falls from 94% to 79.9%.

Going from `Nc1cccc(-c2ccc(OC3CCNCC3)cc2)c1` [CBK126959T] to `O=C(O)CCc1ccc(-c2ccc(Cl)cc2)n1Cc1ccco1` [CBK265984], the viability at 28.5 h, 10 µM rises from 83.9% to 92.4%.

Going from `COc1ccc2[nH]c(CN3CCCC(c4nc(C)n[nH]4)C3)c(C)c2c1` (stereo not shown) [CBK306904] to `Nc1nc(NCCOc2ccccc2F)cc(C2CCOC2)n1` (stereo not shown) [CBK306559], the viability at 28.5 h, 10 µM falls from 101% to 78.2%.

Compared with `COc1ncccc1C(NC(=O)C1CCN(C(=O)OCc2ccccc2)CC1)c1ccccc1C` (stereo not shown) [CBK076802], `Cc1cc(Oc2ccccc2)nc(Oc2ccc(=O)n(-c3ccccc3)n2)n1` [CBK269843] is higher in viability at 28.5 h, 10 µM: 90.8% for the first, 106% for the second.

Compared with `CSc1ncc(Cl)c(C(=O)Nc2nnc(C)s2)n1` [CBK268920], `Cc1nn(C)cc1-c1cncn1CC(C)Oc1ccccc1Cl` (stereo not shown) [CBK281739] is lower in viability at 28.5 h, 10 µM: 90.1% for the first, 83.8% for the second.

First: COc1cccc2sc(Nc3nc(-c4cccnc4)cs3)nc12 [CBK287470]
Second: O=C(Nc1cccc2nsnc12)c1ccc(-c2ccc(Br)cc2)o1 [CBK263752]
The viability at 28.5 h, 10 µM of the first is higher: 98.5% for the first, 95.9% for the second.

Going from `Fc1cccc(F)c1CN1CCN(CCc2ccccc2)CC1` [CBK126422] to `O=C(O)c1ccc(CNCC(O)c2ccccc2)cc1` (stereo not shown) [CBK287243], the viability at 28.5 h, 10 µM rises from 89.9% to 109%.

First: O=C(Cc1ccc(F)cc1)NCCn1nc(-c2ccco2)ccc1=O [CBK283706]
Second: O=C(/C=C/c1ccsc1)Nc1ccc(F)cc1 [CBK057139]
The viability at 28.5 h, 10 µM of the first is lower: 86.4% for the first, 93.9% for the second.

Going from `COc1ccccc1C1=NN(C(=O)CCCC(=O)O)C(c2ccco2)C1` (stereo not shown) [CBK266642] to `O=C(CSc1nnnn1C1CC1)c1cc2ccccc2o1` [CBK297158], the viability at 28.5 h, 10 µM falls from 91.8% to 90.7%.

First: CN/C(=N\C1CCCCC1)N1CCOCC1 [CBK023800G]
Second: CCOc1cc(OCC)cc(C(=O)N2CCC3(CC2)CC(=O)c2cc(OCCN(C)C)ccc2O3)c1 [CBK169003T]
The viability at 28.5 h, 10 µM of the first is higher: 92.2% for the first, 89.3% for the second.

Compared with `COc1cc(Nc2cc(-c3ccco3)ncn2)cc(OC)c1OC` [CBK090706], `CC(C)Nc1nc(Cl)nc(Nc2ccc(I)cc2)n1` [CBK027685] is higher in viability at 28.5 h, 10 µM: 90.3% for the first, 97.6% for the second.

In the case of `C=CCN1C(=O)CC2(C1=O)C(=O)N(Cc1nnc(-c3ccc(C)cc3)o1)c1ccc(Cl)cc12` (stereo not shown) [CBK075434], the viability at 28.5 h, 10 µM is reported as 104%.

Same assay, conditions: human, hela cells, % viability, bulk resorufin, single well

Going from `O=C(c1ccoc1)N1CCC2(CC1)OCc1ccccc1O2` [CBK061234] to `COc1ccc2c(c1)COC1(CCN(C(=O)CC(C)(C)CC(=O)O)CC1)O2` [CBK060855], the viability at 28.5 h, 10 µM falls from 94.7% to 90.3%.

With `CCOC(=O)C1(c2ccccc2)CCN(CC(=O)Nc2ccc(C(=O)OC)cc2)CC1` [CBK020942] the viability at 28.5 h, 10 µM was 92.9%.
